pEC50: −log10 of the molar value.
Experiments:
EP3 receptor = molecular target: T1, EP3 receptor (Homo sapiens, UniProt P43115); experiment: agonist activity on human EP3 receptor (intracellular calcium concentration, EP3-Chem1 cells); assay type: cell-based; conditions: agonist activity on the EP3 receptor
T1 construct: expressed in transfected cells; host or cells: EP3-Chem1
T1 sequence (P43115 1-390): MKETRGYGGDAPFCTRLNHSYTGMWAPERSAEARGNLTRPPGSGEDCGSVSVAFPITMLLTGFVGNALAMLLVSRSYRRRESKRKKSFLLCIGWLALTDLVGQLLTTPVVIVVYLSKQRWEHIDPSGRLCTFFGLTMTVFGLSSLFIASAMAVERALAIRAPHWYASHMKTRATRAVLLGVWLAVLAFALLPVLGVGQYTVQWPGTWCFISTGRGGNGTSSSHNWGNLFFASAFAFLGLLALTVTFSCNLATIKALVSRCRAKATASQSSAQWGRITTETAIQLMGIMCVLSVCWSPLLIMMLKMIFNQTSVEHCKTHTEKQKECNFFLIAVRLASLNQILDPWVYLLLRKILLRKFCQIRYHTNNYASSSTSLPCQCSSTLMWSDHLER
Procedure: (§1) Using CHO cells (EP1-CHO, EP2-CHO, EP3-Chem1, EP4-CHO and IP-CHO) on which various human prostanoid receptors were forcibly expressed, the agonist activity of the test compound on the various prostanoid receptors was examined using the intracellular calcium concentration for EP1 and EP3, and the intracellular cyclic AMP (hereinafter, abbreviated as cAMP) production amount for EP2, EP4 and IP as indices.
The test compound and control substances (PGE2 and iloprost) were dissolved in dimethyl sulfoxide (DMSO) to prepare a 10 mmol/L solution. The prepared 10 mmol/L solution was thawed at the time of use, serially diluted using DMSO, and diluted with a buffer solution 1 for measurement (Hank's balanced salt solution (Thermofischer scientific) containing 1 w/v% human serum albumin (Sigma), 2 µmol/L indomethacin (Sigma), 2.5 mmol/L probenecid, and 10 mmol/L HEPES-NaOH (pH7.4)) or a buffer solution 2 for measurement (D-PBS (Nacalai Tesque) containing 0.1 w/v% human serum albumin, 2 µmol/L diclofenac (Sigma), and 1 mmol/L 3-isobutyl-1-methylxanthine (Sigma)) to perform experiments.

EP1 = molecular target: T2, EP1 (Homo sapiens, UniProt P34995); experiment: agonist activity on human EP1 receptor (intracellular calcium concentration, EP1-CHO cells); assay type: cell-based
T2 construct: expressed in transfected cells; host or cells: CHO (EP1-CHO)
T2 sequence (P34995 1-402): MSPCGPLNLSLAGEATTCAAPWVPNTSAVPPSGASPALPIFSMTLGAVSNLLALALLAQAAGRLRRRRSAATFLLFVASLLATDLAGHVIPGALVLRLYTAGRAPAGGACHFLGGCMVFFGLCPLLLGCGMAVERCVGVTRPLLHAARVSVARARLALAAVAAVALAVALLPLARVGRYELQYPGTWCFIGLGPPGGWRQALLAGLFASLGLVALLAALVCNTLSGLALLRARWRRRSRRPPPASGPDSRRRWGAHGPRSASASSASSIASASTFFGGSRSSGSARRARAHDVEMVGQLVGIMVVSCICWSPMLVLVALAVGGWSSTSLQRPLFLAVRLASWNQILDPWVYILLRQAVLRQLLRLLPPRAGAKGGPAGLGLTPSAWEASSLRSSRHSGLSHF
Method in brief: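 Calcium 6 dye loaded 1 h at room temperature in HBSS with 1% human serum albumin, 2 µmol/L indomethacin, 2.5 mmol/L probenecid, pH 7.4; agonists then added at various concentrations. Intracellular calcium read by fluorescence (ex 480/em 540 nm) in CHO cells expressing human EP1 or Chem1 cells expressing human EP3.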

EP2 = molecular target: T3, EP2 (Homo sapiens, UniProt P43116); experiment: agonist activity on human EP2 receptor (cAMP production, EP2-CHO cells); assay type: cell-based
T3 construct: expressed in transfected cells; host or cells: CHO (EP2-CHO)
T3 sequence (P43116 whole entry): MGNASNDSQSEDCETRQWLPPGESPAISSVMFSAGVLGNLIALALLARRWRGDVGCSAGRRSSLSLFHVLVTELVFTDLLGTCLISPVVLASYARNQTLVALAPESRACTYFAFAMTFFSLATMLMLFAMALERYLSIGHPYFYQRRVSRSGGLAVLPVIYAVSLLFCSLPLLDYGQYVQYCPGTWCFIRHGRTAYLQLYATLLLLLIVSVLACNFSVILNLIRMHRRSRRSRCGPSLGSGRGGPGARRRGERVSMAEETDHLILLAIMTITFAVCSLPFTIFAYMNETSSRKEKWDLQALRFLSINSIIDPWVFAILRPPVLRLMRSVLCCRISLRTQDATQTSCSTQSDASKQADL
Procedure: as §1
(§2) The test compound and control substances (PGE2 and iloprost) were dissolved in dimethyl sulfoxide (DMSO) to prepare a 10 mmol/L solution. […]
(§3) On the day of the measurement, EP2-CHO, EP4-CHO, and IP-CHO were obtained by thawing frozen cells. […] The cAMP concentration was measured using a cAMP HTRF HiRange kit (CIS bio International). […] After incubation for 1 hour, time-resolved fluorescence at 620 nm and 660 nm when excited at 340 nm was measured using Synergy Neo (Bioteck), and the ratio (TRF ratio) was determined to calculate the cAMP concentration from the calibration curve.

EP4 = molecular target: T4, EP4 (Homo sapiens, UniProt P35408); experiment: agonist activity on human EP4 receptor (cAMP production, EP4-CHO cells); assay type: cell-based
T4 construct: expressed in transfected cells; host or cells: CHO (EP4-CHO)
T4 sequence (P35408 whole entry): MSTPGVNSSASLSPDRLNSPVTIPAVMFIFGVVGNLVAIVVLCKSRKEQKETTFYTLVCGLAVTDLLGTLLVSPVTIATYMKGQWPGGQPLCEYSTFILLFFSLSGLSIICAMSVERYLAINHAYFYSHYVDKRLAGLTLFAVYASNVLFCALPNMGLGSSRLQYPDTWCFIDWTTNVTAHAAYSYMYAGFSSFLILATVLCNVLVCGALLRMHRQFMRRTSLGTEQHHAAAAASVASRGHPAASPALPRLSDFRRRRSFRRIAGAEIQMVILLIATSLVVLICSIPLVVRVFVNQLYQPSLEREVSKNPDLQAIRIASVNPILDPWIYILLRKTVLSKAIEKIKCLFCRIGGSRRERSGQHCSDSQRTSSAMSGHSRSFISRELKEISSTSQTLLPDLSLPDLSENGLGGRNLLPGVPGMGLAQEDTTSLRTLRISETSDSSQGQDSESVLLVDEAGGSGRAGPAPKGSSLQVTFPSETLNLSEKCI
Procedure: as §1, §2, §3

IP = molecular target: T5, IP (Homo sapiens, UniProt P43119); experiment: agonist activity on human IP receptor (cAMP production, IP-CHO cells); assay type: cell-based
T5 construct: expressed in transfected cells; host or cells: CHO (IP-CHO)
T5 sequence (P43119 whole entry): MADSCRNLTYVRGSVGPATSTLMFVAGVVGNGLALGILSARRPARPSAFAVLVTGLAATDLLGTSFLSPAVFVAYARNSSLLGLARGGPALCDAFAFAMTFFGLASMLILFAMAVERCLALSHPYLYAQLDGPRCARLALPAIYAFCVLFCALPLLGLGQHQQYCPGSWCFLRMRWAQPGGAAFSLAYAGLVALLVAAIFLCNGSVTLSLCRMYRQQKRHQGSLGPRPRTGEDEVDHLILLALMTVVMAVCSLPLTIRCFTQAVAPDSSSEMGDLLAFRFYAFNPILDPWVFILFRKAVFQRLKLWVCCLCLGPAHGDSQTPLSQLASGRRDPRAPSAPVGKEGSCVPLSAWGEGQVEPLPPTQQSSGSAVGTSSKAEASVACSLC
Procedure: as §1, §2, §3

[1] = test system: rat renal ischemia reperfusion (IR) model; experiment: in vivo drug efficacy in rat renal ischemia reperfusion (IR) model; design: species or system Crl : CD (SD) rats; conditions: subcutaneous osmotic pump
Procedure: The effect of the present compound on renal IR damage was evaluated using male rats.
Male Crl : CD (SD) rats aged 3 or 4 weeks were purchased from Charles River Laboratories Japan, and subjected to experiments. Animals were fed ad libitum with FR-2 (Funabashi Farm) at the time of arrival and with solid feed CE-2 (CLEA Japan) for one week before single kidney removal, and watered ad libitum.
After acclimation breeding, the right kidney was removed about 7 days before renal IR treatment. Specifically, the rats were allowed to inhale isoflurane (Mylan) for anesthesia, and administered buprenorphine (Otsuka Pharmaceutical) as an analgesic at 0.01 mg/kg. The right back was incised, the right kidney was removed, and then the incision was sutured.
Renal IR treatment was performed about 7 days after single kidney removal. Specifically, rats were anesthetized by intraperitoneal administration of sodium pentobarbital (Tokyo Chemical Industry) at a dose of 50 mg/kg, and administered buprenorphine as an analgesic at 0.01 mg/kg. The left abdomen was incised, and the renal artery and vein was sandwiched with a clamp (Natsume Seisakusho) to cause ischemia for 35 minutes. During ischemia, the rats were allowed to lie on a heat-retaining plate set at 38°C, and after 35 minutes, the clamp was removed for reperfusion. After visually confirming that blood flow to the kidney was recovered, the incision was sutured. The sham group was a sham-operated group in which neither ischemia nor reperfusion treatment was performed.
Animals were distributed on the day before renal IR treatment such that differences in the mean of the body weight in each group were not biased, and assigned animal numbers.
The compound of Example 7 (test substance) and physiological saline (Otsuka Pharmaceutical) as a vehicle were subcutaneously administered at 5 mL/kg using an injection needle 5 minutes before renal IR treatment. Saline was administered to the sham group in the same test. The administration dose is described in Table 16.
Specifically, the rats were allowed to inhale isoflurane for anesthesia on the day before renal IR treatment, and administered buprenorphine as an analgesic at 0.01 mg/kg. […] The incision was bonded with Dermabond Advanced (Johnson & Johnson). A pump containing a vehicle was also embedded in the sham group in the same test. The administration dose is described in Table 16.
After renal IR treatment, blood was collected through the tail vein on Day1, Day2, and Day3 to obtain serum. In addition, after renal IR treatment, rats were euthanized by exsanguination through the abdominal aorta under isoflurane anesthesia on Day3.
The respective concentrations of serum creatinine (sCre) and blood urea nitrogen (BUN) were measured using an automatic analyzer 7180 (Hitachi High-Tech).

(1R,2R,3aS,10aR)-1-{(1E,3ξ)-3-[1-(2,5-difluorophenyl)cyclobutyl]-3-hydroxy-1-propen-1-yl}-2-hydroxy-2,3,3a,9,10,10a-hexahydro-1H-benzo[b]cyclopenta[f]oxepine-6-carboxylic acid [Example 7-30]
pEC50 (EP3 receptor): 7.40
pEC50 (EP1): < 5.00
pEC50 (EP2): < 5.00
pEC50 (EP4): 5.82
pEC50 (IP): < 5.00
blood urea nitrogen (BUN) concentration mean ([1]; IR 0.3 µg/kg/min, day 1): 96.6
serum creatinine (sCre) concentration mean ([1]; IR 0.3 µg/kg/min, day 1): 1.78
blood urea nitrogen (BUN) concentration mean ([1]; IR 0.3 µg/kg/min, day 2): 94.3
serum creatinine (sCre) concentration mean ([1]; IR 0.3 µg/kg/min, day 2): 1.42
blood urea nitrogen (BUN) concentration mean ([1]; IR 0.3 µg/kg/min, day 3): 79.8
serum creatinine (sCre) concentration mean ([1]; IR 0.3 µg/kg/min, day 3): 1.00
blood urea nitrogen (BUN) concentration mean ([1]; IR 3.0 µg/kg/min, day 1): 89.5
serum creatinine (sCre) concentration mean ([1]; IR 3.0 µg/kg/min, day 1): 1.45
blood urea nitrogen (BUN) concentration mean ([1]; IR 3.0 µg/kg/min, day 2): 81.8
serum creatinine (sCre) concentration mean ([1]; IR 3.0 µg/kg/min, day 2): 1.10
blood urea nitrogen (BUN) concentration mean ([1]; IR 3.0 µg/kg/min, day 3): 70.7
serum creatinine (sCre) concentration mean ([1]; IR 3.0 µg/kg/min, day 3): 0.83
